Assay results from patent US20250026734A1 (priority 2021, published 2025).
“And” between values parts separate entries of the source, which are not always exact repeats. Equal values may be shown once. Read-outs that look alike come from different tables or passages of the source.

Test system: SARS-CoV-2 strains
Type: cell-based

For `CCCCn1c(=O)c2ccc(NCCO)cc2c2cc(C(O)(C(F)(F)F)C(F)(F)F)ccc21` [NR-31], the EC50 (read-out: EC50) was 5.12 µM and 3.47 µM and 3.53 µM and 5.28 µM and 3.37 µM and 4.07 µM and 3.62 µM and the EC50 (read-out: EC50 (inhibits cell death induced by SARS-CoV-2 infection by 50%)) was 4.4 µM.
